The text below walks through data of patent publication US20250108064A1, “PHOSPHATE PRODRUGS OF CANNABINOIDS” (priority 2021, published 2025).

What is called solubility is the dissolved amount per volume that the medium holds.

Data set [1] in a line: Plasma stability assay (human plasma). As to conditions: 37° C.; for half-life: read-out: T½ in human plasma (converted). It is filed as in vitro ADME. On the procedure:
General Experimental: Procaine and Procainamide were purchased from Sigma-Aldrich. Human plasma was obtained from BioIVT (Cat. No. […]2N) and 1X Dulbecco's PBS (pH 7.4, Gibco) was obtained from Thermos Fischer. Stock solutions were prepared in 100% DMSO, and suitable dilutions of target analytes were prepared in methanol for method development.
Procedure for Plasma Stability Assay: Test compounds were dissolved in DMSO to make a stock solution of 10 mM and then diluted to 500 μM in buffer (or 70% MeOH). Human plasma was thawed at ambient temperature and is aliquoted ([…]) to a 1.5 mL Eppendorf tube in duplicates (A and B) for each compound. Plasma was incubated at 37° C. for 10 minutes in an incubator shaker at 150 rpm; the reaction was initiated by the addition of the test compound (6.0 μL) and vortex mixing. The total reaction volume was 1000 μL where the final organic solvent concentrations were 0.6% MeOH and 0.03% DMSO. The spiked plasma samples were incubated at 37° C. for 4 hrs. The reactions were terminated at time points 0, 15, 30, 60, 120, 180, and 240 min by taking a 100 μL aliquot from the test incubation mixture and immediately quenching it in ice-cold acetonitrile containing internal standard (150 μL with 2 μM ISTD), followed by a quick vortex mixing. In addition, matrix blank was prepared by adding acetonitrile solutions containing ISTD to plasma samples without any of the analytes or control compounds. Also, an additional tube was made to measure compound degradation in PBS buffer. The samples were centrifuged at 15000 rpm for 25 min at 4° C. The supernatant was transferred to an LC-MS vial for analysis by LC/MS-MS. Each time point was run in duplicates followed by in-between blank washes to avoid the carryover and to equilibrate the column. Half-life (T1/2) was calculated using the data obtained from LC-MS/MS and by plotting ln (% remaining of the parent prodrug) versus time and performing linear regression to determine slope. Slope=−k and T1/2=0.693/k for first-order kinetics.
These positive controls were run in parallel to test the systems for competency.

A short description of data set [2]: physchem. It is filed as physicochemical. As to conditions: aqueous buffer, kinetic from dmso stock, PBS pH 7.0-7.3, 1% DMSO, 25° C.; for solubility: nephelometry, 90 min. On the procedure:
General Experimental: Nephelometry experiments were performed using untreated Corning® Costar® 96-well black polystyrene plates with clear flat bottoms. Sample stock solutions and serial dilutions were prepared with DriSolv® DMSO purchased from MilliporeSigma. All 100-fold dilutions and replicate experiments were prepared using Gibco® Dulbecco's phosphate-buffered saline (DPBS, no calcium, no magnesium) with a pH range of 7.0-7.3 as aqueous media. […] Nephelometry data was obtained using a NEPHELOstar® microplate reader and processed with MARS data analysis software from BMG LabTech.
Procedure for Nephelometry Experiments: Tested compounds were dissolved in 100% DMSO to make stock solutions of specified concentrations, ranging from 10 mM minimum up to 50 mM maximum. The sample then underwent serial dilution in a 96-well plate (Corning® Costar®). Well A1 of the plate contained 100% DMSO. […] Using a 12 channel multichannel pipette, 2.5 μL of sample from row A was transferred to each well in row B through row H of the plate. Next, 30 μL of PBS (pH=7.0-7.3) was added to row B through row H, providing each well with 32.5 μL. The plate was then incubated for 30 sec with shaking. Finally, 217.5 μL of PBS buffer was added to row B through row H, and the entire plate was incubated with shaking at 25° C. for 90 min. Note: The final volume of DMSO in actual experiments with PBS buffer was 1% throughout the plate. After 90 min, the 96-well plate was analyzed with a NEPHELOstar® instrument and the data was processed with MARS data analysis software.

A short description of data set [3]: Liver microsome stability assay (HLM). It is filed as in vitro ADME. To be noted: human, microsomes, pH 7.4; 3 μM test compound, NADPH; read-out: T½ in HLM. On the procedure: General Experimental: Human and mouse liver microsomes were purchased from Xenotech at 20 mg/mL. NADPH (Sigma-Aldrich) 10 mM stocks were prepared in deionized water.
Procedure for Liver Microsome Stability Assay: Test compounds and positive controls were dissolved in 100% DMSO to make 10 mM stock solutions. Verapamil (Sigma-Aldrich) and diphenhydramine (Sigma-Aldrich) were used as positive controls for both human liver microsomes (HLM) and mouse liver microsomes (MLM). The 10 mM stock solutions of test and control compounds were further diluted in potassium phosphate buffer (100 mM, pH 7.4) to 500 μM to ensure that the organic solvent content was <0.2%. The liver microsome (HLM or MLM) assay was prepared in a 1.5 mL Eppendorf tube with a final volume of 1100 μL for duplicate runs. Each reaction contained phosphate buffer (928.4 μL), liver microsomes (55 μL), and test compound (6.6 μL of 500 μM), resulting in a final concentration of 3 μM for the test compound. The reaction was initiated with 110 μL of 10 mM NADPH. Aliquots (100 μL) were removed in duplicate at 0, 5, 10, 15, and 30 min and quenched in […] of 100% cold methanol which contained internal standard (ISTD: d5-7-ethoxy coumarin 2 μM). The aliquots were centrifuged at 12,000 g for 5 min, and the supernatant was transferred and placed in an LC-MS vial. Each time point was assessed by LC-MS/MS, and the area under the m/z curve (AUC), based on the MRM transition, was integrated w.r.t the ISTD. Positive controls were conducted at a final volume of 550 μL to enable a single run for each time point. Negative controls in the absence of NADPH were performed with the test and control compounds, respectively, at a final volume of 150 μL and measured at the most prolonged time point. Control compounds were processed and analyzed like test compounds. Each time point was run in triplicates on LC-MS/MS followed by in-between blank washes to avoid the carryover and to equilibrate the column. Half-life (T1/2) was calculated using the data obtained from LC-MS/MS and by plotting ln (% remaining of the parent prodrug) versus time and performing linear regression to determine slope. Slope=−k and T1/2=0.693/k for first-order kinetics.
A general note: Liver microsomes are a subcellular fraction often used to study metabolism.

Bounds are passed on as bounds.

For `C=C(C)[C@@H]1CCC(C)=C[C@H]1c1c(O)cc(CCCCC)cc1OC(=O)C1(OP(=O)(O)OCCOC)CC1.N` [14i, 1-((((1′R,2′R)-6-hydroxy-5′-methyl-4-pentyl-2′-(prop-1-en-2-yl)-1′,2′,3′,4′-tetrahydro-[1,1′-biphenyl]-2-yl)oxy)carbonyl)cyclopropyl (2-methoxyethyl) phosphate ammonium salt], the half-life in data set [1] was more than 4 h; in data set [3], 0.317 h. For the same compound, the solubility in data set [2] was more than 500 µM.
As for `C=C(C)[C@@H]1CCC(C)=C[C@H]1c1c(O)cc(CCCCC)cc1OC(=O)C1(OP(=O)(O)OCCOCCOC)CC1.N` [14j, 1-((((1′R,2′R)-6-hydroxy-5′-methyl-4-pentyl-2′-(prop-1-en-2-yl)-1′,2′,3′,4′-tetrahydro-[1,1′-biphenyl]-2-yl)oxy)carbonyl)cyclopropyl (2-(2-methoxyethoxy)ethyl) phosphate ammonium salt], the half-life in data set [1] is more than 4 h; in data set [3] it was 0.4 h. In data set [2], this compound came in with a solubility of more than 500 µM.
On the same counts, the results for `C=C(C)[C@@H]1CCC(C)=C[C@H]1c1c(O)cc(CCCCC)cc1OC(=O)OCCOP(=O)(O)O.N.N` [29a, (1′R,2′R)-6-hydroxy-5′-methyl-4-pentyl-2′-(prop-1-en-2-yl)-1′,2′,3′,4′-tetrahydro-[1,1′-biphenyl]-2-yl(2-(phosphonooxy)ethyl) carbonate di-ammonium salt] are 16.5 h, 0.7 h and more than 500 µM.
Taken in the same sequence, the figures for `C=C(C)[C@@H]1CCC(C)=C[C@H]1c1c(O)cc(CCCCC)cc1OC(=O)OCCCOP(=O)(O)O.N.N` [29b, (1′R,2′R)-6-hydroxy-5′-methyl-4-pentyl-2′-(prop-1-en-2-yl)-1′,2′,3′,4′-tetrahydro-[1,1′-biphenyl]-2-yl(3-(phosphonooxy)propyl) carbonate di-ammonium salt] were more than 4 h, 0.317 h and more than 500 µM.
On the same counts, the results for `C=C(C)[C@@H]1CCC(C)=C[C@H]1c1c(O)cc(CCCCC)cc1OC(=O)OCCCCOP(=O)(O)O.N.N` [29c, (1′R,2′R)-6-hydroxy-5′-methyl-4-pentyl-2′-(prop-1-en-2-yl)-1′,2′,3′,4′-tetrahydro-[1,1′-biphenyl]-2-yl(4-(phosphonooxy)butyl) carbonate di-ammonium salt] are more than 4 h, 0.417 h and more than 500 µM.
In the case of `C=C(C)[C@@H]1CCC(C)=C[C@H]1c1c(O)cc(CCCCC)cc1OC(=O)NCCOP(=O)(O)O.N.N` [38a, (1′R,2′R)-6-hydroxy-5′-methyl-4-pentyl-2′-(prop-1-en-2-yl)-1′,2′,3′,4′-tetrahydro-[1,1′-biphenyl]-2-yl(2-(phosphonooxy)ethyl)carbamate di-ammonium salt], the values for the half-life in data set [1] and in data set [3] were more than 4 h and 2.02 h, respectively. In data set [2], this compound showed a solubility of more than 500 µM.
For `C=C(C)[C@@H]1CCC(C)=C[C@H]1c1c(O)cc(CCCCC)cc1OC(=O)N(C)CCOP(=O)(O)O.N.N` [38b, (1′R,2′R)-6-hydroxy-5′-methyl-4-pentyl-2′-(prop-1-en-2-yl)-1′,2′,3′,4′-tetrahydro-[1,1′-biphenyl]-2-yl methyl(2-(phosphonooxy)ethyl)carbamate di-ammonium salt], the half-life at 3 μM was more than 4 h in data set [1] (read-out: T½ in human plasma) and 3.83 h in data set [3]. The compound also displayed a solubility at 90 min in data set [2] of more than 500 µM.
As to `C=C(C)[C@@H]1CCC(C)=C[C@H]1c1c(O)cc(CCCCC)cc1OC(=O)NCCCOP(=O)(O)O.N.N` [38c, (1′R,2′R)-6-hydroxy-5′-methyl-4-pentyl-2′-(prop-1-en-2-yl)-1′,2′,3′,4′-tetrahydro-[1,1′-biphenyl]-2-yl (3-(phosphonooxy)propyl)carbamate di-ammonium salt], the half-life in data set [1] is more than 4 h; in data set [3], 1.22 h. This compound showed a solubility in data set [2] of more than 500 µM.
On the same counts, the results for `C=C(C)[C@@H]1CCC(C)=C[C@H]1c1c(O)cc(CCCCC)cc1OC(=O)C1(OP(=O)(O)OCc2ccccc2)CC1.N` [compound 8, benzyl (1-((((1′R,2′R)-6-hydroxy-5′-methyl-4-pentyl-2′-(prop-1-en-2-yl)-1′,2′,3′,4′-tetrahydro-[1,1′-biphenyl]-2-yl)oxy)carbonyl)cyclopropyl) phosphate ammonium salt] are 5.3 h, 0.383 h and 287 ± 13 µM.
